System: human CD4+ T cells under Treg polarizing conditions
Test: Human Treg in vitro differentiation
Assay type: cell-based
Conditions: 6 days, 1 μM
Method: Mouse CD4+ T cell in vitro Th1 differentiation
Total CD4+ T cells were isolated from splenocytes of C57/BL6 mice (Chareles River Labrotory) using a CD4+ T cell isolation kit (Miltenyl Biotec, Auburn, CA), following the manufacturer’s instructions. Cells were resuspended in culture medium (described in Method section of Th17 differentiation) and were added to 96‐well plates at 2x10^5 per well. Titrated JNJ‐54271074 was added to each well at final DMSO concentration of 0.2%. Cells were incubated for 1 hour, after which Th1 cell differentiation medium was added with final concentrations of 1 µg/ml anti‐CD3, 5 µg/mL anti‐CD28 (BD Pharmingen, San Diego, CA), 10 µg/ml anti‐IL4, 10 ng/mL IL‐12, (R&D Systems, Minneapolis, MN). Cells were cultured at 37 °C and 5% CO2 for 3 days. Supernatants were collected and the accumulated cytokines in culture were measured by ELISA kits (R&D Systems, Minneapolis, MN) following manufacturers' instructions.
IL‐23 induced IL‐17A and IL‐22 production in mouse splenocytes splenocytes were isolated from C57/BL6 mice and resuspended in medium and cultured in 96‐well plates at […] per 100 µL per well. […] Supernatants were collected and the accumulated cytokines in culture were measured by ELISA according to the manufacturer’s instructions (IL‐17A kit from R&D systems, and IL‐22 from Biolegend San Diego). […]

**Q.** Which “mRNA expression of FOXP3” value does the source give for COc1nc2ccc([C@@](O)(c3ccc(C)nc3C)c3cnnn3C)cc2c(Cl)c1Cc1ccc(C(F)(F)F)cc1 [JNJ-54271074] here?
**A.** slightly increased

**Q.** What about the “percentage of FOXP3+ T cell” value of the same compound?
**A.** no impact

From article PMC5131364, “Pharmacologic modulation of RORγt translates to efficacy in preclinical and translational models of psoriasis and inflammatory arthritis” (Scientific Reports, 2016)
